Experimental findings from patent US9593149B2, “Amylin and calcitonin receptor agonist” (Novo Nordisk A/S, priority 2014, dated 2017) are described below.

Molecules are shown by their SMILES. Numbered stars: 1 amine (or outer) side, 2 acyl side, 3 side chain; on linkers, the order of the positions; unused ones are H or OH. Peptide text beside a SMILES is read from it. * marks the point of attachment. C18 diacid = O=C(O)CCCCCCCCCCCCCCCCC(=O)*; C16 diacid = O=C(O)CCCCCCCCCCCCCCC(=O)*; γGlu = O=C(O)[C@H](CCC(=O)[*:2])N[*:1]; C14 diacid = O=C(O)CCCCCCCCCCCCC(=O)*

The nature of series [1]: Assay (IV) determination of solubility. The class given is physicochemical. The protocol:
Assay (IV)—Determination of Solubility
The mimylin peptide was dissolved in water at ˜500 nmol/ml and mixed 1:1 with a series of buffers (100 mM glycylglycine pH 3.0, 100 mM glycylglycine pH 4.0, 100 mM glycylglycine pH 5.0, 100 mM bistrispropane pH 6.0, 100 mM bistrispropane pH 6.5, 100 mM bistrispropane pH 7.0, 100 mM bistrispropane pH 7.5, 100 mM bistrispropane pH 8.0).

Series [2] can be described thus: Assay (IX) pK, T½ in mini-pig. The class given is in vivo, Göttingen mini-pigs. The note with it: i.v. In short, it runs like this:
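Female Göttingen mini-pigs (5–12 months, 15–35 kg, fed freely) received a single i.v. dose of approximately 5 nmol/kg via central venous catheter, typically n=3. Plasma was sampled from pre-dose to 240 h (sometimes 288 h) and quantified by LC-MS. T½ was derived by non-compartmental analysis from the terminal log-linear slope (ln2/λz).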

A short description of a further series: Assay (X) pK, T½ in rat. Type of series: in vivo, Sprague Dawley rats. The note with it: for PK rat iv T½: i.v.; for PK rat sc T½: s.c. The protocol:
Assay (X)—pK—Determination of T½ in Rat
Pharmacokinetic (PK) studies rats were conducted in order to determine the T½ of mimylin peptide after i.v. and s.c. administration.
T½ values of the mimylin derivates of the invention is determined by pharmacokinetic studies in Sprague Dawley male rats, from Taconic Europe and the principles of laboratory animal care are followed.
An acclimatisation period of approximately 7 days was allowed before the animals entered the study. At start of the acclimatisation period the rats were in the weight range of 250-400 g.
The studies were conducted in an animal room which was illuminated to give a cycle of approximately 12 hours light and 12 hours darkness. The animals were group housed and had food and water ad lib. The animals were weighed on the days of dosing.
In the present studies the test substances were administered subcutaneously or intravenously in approximately 20 nmol/kg dose. The animals received a single subcutaneous injection to the neck for subtaneous administration or directly into the tail vein for intravenous administration. Each test substance was given to typically three but in some cases two or four animals.
A full plasma concentration-time profile, employing 8-10 sampling points, was obtained from each animal. In example blood samples were collected according to the following schedule: After subcutaneous or intravenous administration:
At each sampling time, 0.08 to 0.10 ml of blood was drawn from each animal. The blood samples were taken in the sublingual vein via venous puncture and the use of a capillary tube.
The blood samples were stabilised with EDTA. Blood samples were kept on ice for max 20 min. before centrifugation. Plasma was separated using centrifugation (i.e. at 4° C., 10 min., 1500G) and was immediately transferred to Micronic tubes or PCR plates. Approximately 40 μl plasma was transferred and was stored at −20° C. until assayed. The plasma samples were assayed for the content of mimylin compound by LCMS
The plasma concentration-time profiles were analysed by a non-compartmental pharmacokinetic analysis (NCA) using Phoenix WinNonlin 6.3 (Pharsight Inc., Mountain View, Calif., USA). NCA was performed using the individual plasma concentration-time profiles from each animal. T½ is the terminal half-life=In2/λz and was determined from λz, the first order rate constant associated with the terminal (log-linear) portion of the curve, estimated by linear regression of time vs. log concentration.

Series [3] deals with T1, human amylin 3(a) receptor (human calcitonin receptor + RAMP-3), BHK570 cells (Homo sapiens, UniProt O60896+P30988).
T1 construct: host or cells: BHK570
The series can be described thus: Assay (II)a functional CRE-luciferase assay with albumin, human amylin receptor. The class given is cell-based. Conditions: Tested with HSA; read-out: hAmylin-R funct. EC50. An excerpt:
(§1) Assay(II)a—Human Calcitonin and Amylin Receptor Assay
(§2) 1. Luciferase Assay Outline
(§3) Activation of calcitonin and amylin (co-expression of calcitonin receptor and receptor activity modifying proteins (RAMP)) receptors lead to increased intracellular concentrations of cAMP. Consequently, transcription is activated by promoters containing multiple copies of the cAMP response element (CRE). It is thus possible to measure amylin activity by the use of a CRE luciferase reporter gene introduced into BHK cells also expressing calcitonin or amylin receptors.
(§4) 2. Construction of Calcitonin (a)—and Amylin 3(a)—Receptor/CRE-Luc Cell Line.
(§5) A BHK570 cell line was stably transfected with the human calcitonin receptor and a CRE-responsive luciferase reporter gene. The cell line was further transfected with RAMP-3, using standard methods. This turns the calcitonin receptor into an amylin 3(a) receptor. Methotrexate, Neomycin, and Hygromycin are selection markers for luciferase, the calcitonin receptor, and RAMP-3, respectively.
(§6) To perform activity assays, BHK calcitonin (a) receptor- or amylin 3(a)-receptor/CRE-luc cells were seeded in white 96 well culture plates at a density of about 20.000 cells/well. […] After incubation overnight at 37° C. and 5% CO2, the growth medium was replaced by 50 μl/well assay medium (DMEM (without phenol red), Glutamax™, 10% FBS, and 10 mM Hepes, pH 7.4). Further, 50 μl/well of standard or sample in assay buffer were added.
(§7) After 3 hours incubation at 37° C. and 5% CO2, the assay medium with standard or sample were removed and replaced by 100 μl/well PBS. Further, 100 μl/well LucLite™ was added. The plates were sealed and incubated at room temperature for 30 minutes. Finally, luminescence was tested on a TopCounter (Packard) in SPC (single photon counting) mode.

Series [4] concerns the target T2, human calcitonin (a) receptor, BHK570 cells (Homo sapiens, UniProt P30988).
T2 construct: host or cells: BHK570
T2 sequence (P30988 25-474): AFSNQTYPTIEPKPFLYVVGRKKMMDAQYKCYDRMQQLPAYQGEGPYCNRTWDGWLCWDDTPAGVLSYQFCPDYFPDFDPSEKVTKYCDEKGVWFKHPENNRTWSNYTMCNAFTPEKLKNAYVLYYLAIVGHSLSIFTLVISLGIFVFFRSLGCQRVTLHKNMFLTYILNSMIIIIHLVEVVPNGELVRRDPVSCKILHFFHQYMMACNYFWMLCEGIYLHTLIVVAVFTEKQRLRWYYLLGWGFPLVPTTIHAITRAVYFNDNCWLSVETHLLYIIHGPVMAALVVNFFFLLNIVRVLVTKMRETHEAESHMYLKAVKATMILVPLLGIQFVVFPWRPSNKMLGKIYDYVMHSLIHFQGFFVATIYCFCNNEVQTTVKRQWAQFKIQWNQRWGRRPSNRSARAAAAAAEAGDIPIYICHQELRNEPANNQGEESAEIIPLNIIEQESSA
In words: Assay (II)a functional CRE-luciferase assay with albumin, human calcitonin receptor. The note with it: Tested with HSA; read-out: hCTR funct. EC50. Type of series: cell-based.
Text: as §1, §2, §3, §4, §5, §6, §7

Series [5] addresses T1, human amylin 3(a) receptor (human calcitonin receptor + RAMP-3), BHK570 cells. In words: Assay (II)b functional CRE-luciferase assay without albumin, human amylin receptor. The class given is cell-based. The note with it: Tested without HSA; read-out: hAmylin-R funct. EC50. In short, it runs like this:
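Agonism measured as CRE-driven luciferase luminescence after 3 h sample exposure at 37 °C, without albumin (0.1% ovalbumin, Hepes pH 7.4 medium). Reporter cells: BHK570 carrying human calcitonin receptor, co-transfected with RAMP-3 to form the amylin 3(a) receptor.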

Series [6] has as its target T2, human calcitonin (a) receptor, BHK570 cells. The series can be described thus: Assay (II)b functional CRE-luciferase assay without albumin, human calcitonin receptor. Conditions: Tested without HSA; read-out: hCTR funct. EC50. Type of series: cell-based. In short, it runs like this:
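BHK570 cells stably expressing human calcitonin receptor with CRE-luciferase reporter, plus RAMP-3 for the amylin 3(a) line. Cells stimulated 3 hours at 37 °C in albumin-free assay medium (0.1% ovalbumin, 10 mM Hepes pH 7.4); cAMP-driven luciferase read by luminescence.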

T1 sequence (O60896 24-148, one chain of several): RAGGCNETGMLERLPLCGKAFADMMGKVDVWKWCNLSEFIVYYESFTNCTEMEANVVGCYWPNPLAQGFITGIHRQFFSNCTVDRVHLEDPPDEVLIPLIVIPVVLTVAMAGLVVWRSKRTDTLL

On to `CC(C)C[C@H](NC(=O)[C@H](C)NC(=O)[C@H](C)NC(=O)[C@@H](NC(=O)[C@H](CO)NC(=O)[C@H](CC(C)C)NC(=O)[C@H](CCC(=O)O)NC(=O)[C@H](CO)NC(=O)[C@H](C)NC(=O)[C@H](CCC(=O)O)NC(=O)CCCCCCCCCCCCC(=O)O)[C@@H](C)O)C(=O)NCC(=O)N[C@@H](CCCNC(=N)N)C(=O)N[C@@H](CC(C)C)C(=O)N[C@@H](CO)C(=O)N[C@@H](C)C(=O)N[C@@H](CCC(=O)O)C(=O)N[C@@H](CC(C)C)C(=O)N[C@@H](Cc1cnc[nH]1)C(=O)N[C@@H](CCC(=O)O)C(=O)N[C@@H](CC(C)C)C(=O)N[C@@H](C)C(=O)N[C@H](C(=O)N[C@@H](CC(C)C)C(=O)N1CCC[C@H]1C(=O)N[C@@H](CCCNC(=N)N)C(=O)N[C@H](C(=O)N[C@@H](CCC(=O)O)C(=O)N[C@H](C(=O)NCC(=O)N1CCC[C@H]1C(=O)N[C@@H](CCC(=O)O)C(=O)N[C@@H](CO)C(=O)N1CCC[C@H]1C(N)=O)[C@@H](C)O)[C@@H](C)O)[C@@H](C)O` [Ex. #4, [N-terminal(C14 diacid)]mimylin] ({C14 diacid}-EASELSTAALGRLSAELHELATLPRTETGPESP-NH2), for which the Solubility entry in series [1] (pH 3.0), in series [1] (pH 4.0), in series [1] (pH 5.0), in series [1] (pH 6.0), in series [1] (pH 6.5) and in series [1] (pH 7.0) was “≧200 μM” in each case. Also, the Solubility entry in series [1] (pH 7.5) and in series [1] (pH 8.0) was “≧200 μM” throughout. In addition, the “PK mini pig iv T½” value in series [2] is 2 h. In addition, the “PK rat iv T½” value in “Assay (X) pK, T½ in rat” came out at 3 h. Further, in the series “Assay (X) pK, T½ in rat”, the “PK rat sc T½” value came to 3 h.
Regarding `CC(C)C[C@H](NC(=O)[C@H](C)NC(=O)[C@H](C)NC(=O)[C@@H](NC(=O)[C@H](CO)NC(=O)[C@H](CC(C)C)NC(=O)[C@H](CCC(=O)O)NC(=O)[C@H](CO)NC(=O)[C@H](C)NC(=O)[C@H](CCC(=O)O)NC(=O)CCCCCCCCCCCCCCC(=O)O)[C@@H](C)O)C(=O)NCC(=O)N[C@@H](CCCNC(=N)N)C(=O)N[C@@H](CC(C)C)C(=O)N[C@@H](CO)C(=O)N[C@@H](C)C(=O)N[C@@H](CCC(=O)O)C(=O)N[C@@H](CC(C)C)C(=O)N[C@@H](Cc1cnc[nH]1)C(=O)N[C@@H](CCC(=O)O)C(=O)N[C@@H](CC(C)C)C(=O)N[C@@H](C)C(=O)N[C@H](C(=O)N[C@@H](CC(C)C)C(=O)N1CCC[C@H]1C(=O)N[C@@H](CCCNC(=N)N)C(=O)N[C@H](C(=O)N[C@@H](CCC(=O)O)C(=O)N[C@H](C(=O)NCC(=O)N1CCC[C@H]1C(=O)N[C@@H](CCC(=O)O)C(=O)N[C@@H](CO)C(=O)N1CCC[C@H]1C(N)=O)[C@@H](C)O)[C@@H](C)O)[C@@H](C)O` [compound 3, [N-terminal(C16 diacid)]mimylin] ({C16 diacid}-EASELSTAALGRLSAELHELATLPRTETGPESP-NH2), the Solubility entry in series [1] (pH 3.0), in series [1] (pH 4.0), in series [1] (pH 5.0), in series [1] (pH 6.0), in series [1] (pH 6.5) and in series [1] (pH 7.0) was “≧200 μM” throughout. In addition, the Solubility entry in series [1] (pH 7.5) and in series [1] (pH 8.0) was “≧200 μM” each time. For the same molecule, the “PK mini pig iv T½” value in series [2] worked out at 17 h. For the same molecule, in the series “Assay (X) pK, T½ in rat”, the “PK rat iv T½” value turned out to be 3 h. Further, the “PK rat sc T½” value in the series “Assay (X) pK, T½ in rat” was 3 h.
Usually EC50 stands for the concentration needed to bring the measured effect to its halfway point. Usually solubility stands for the concentration that dissolves in the medium under given conditions. The low end stands for little dissolved substance, the high end for much dissolved substance. As for `CC(C)C[C@H](NC(=O)[C@H](C)NC(=O)[C@H](C)NC(=O)[C@@H](NC(=O)[C@H](CO)NC(=O)[C@H](CC(C)C)NC(=O)[C@H](CCC(=O)O)NC(=O)[C@H](CO)NC(=O)[C@H](C)NC(=O)CC[C@H](NC(=O)CCCCCCCCCCCCCCCCC(=O)O)C(=O)O)[C@@H](C)O)C(=O)NCC(=O)N[C@@H](CCCNC(=N)N)C(=O)N[C@@H](CC(C)C)C(=O)N[C@@H](CO)C(=O)N[C@@H](C)C(=O)N[C@@H](CCC(=O)O)C(=O)N[C@@H](CC(C)C)C(=O)N[C@@H](Cc1c[nH]cn1)C(=O)N[C@@H](CCC(=O)O)C(=O)N[C@@H](CC(C)C)C(=O)N[C@@H](C)C(=O)N[C@H](C(=O)N[C@@H](Cc1ccc(O)cc1)C(=O)N1CCC[C@H]1C(=O)N[C@@H](CCCNC(=N)N)C(=O)N[C@H](C(=O)N[C@@H](CCC(=O)O)C(=O)N[C@H](C(=O)NCC(=O)N[C@@H](CO)C(=O)NCC(=O)N[C@@H](CO)C(=O)N1CCC[C@H]1C(N)=O)[C@@H](C)O)[C@@H](C)O)[C@@H](C)O` [compound 58, [N-terminal(C18 diacid-gGlu), des1, 23Y, 30S, 31G]mimylin] ({C18 diacid-γGlu}-ASELSTAALGRLSAELHELATYPRTETGSGSP-NH2), the EC50 in series [3] came to 0.024 nM; in series [4] it was 0.015 nM; in series [5] it was 0.01 nM; in series [6], 0.01 nM. In addition, the solubility at 18 h is not below 200 µM in series [1] (bistrispropane buffer, pH 6.5); not below 200 µM in series [1] (bistrispropane buffer, pH 7.5); not below 200 µM in series [1] (bistrispropane buffer, pH 6.0); not below 200 µM in series [1] (bistrispropane buffer, pH 7.0); not below 200 µM in series [1] (bistrispropane buffer, pH 8.0); not below 200 µM in series [1] (glycylglycine buffer, pH 3.0). Moreover, the solubility at 18 h in series [1] (glycylglycine buffer, pH 4.0) was not below 200 µM; in series [1] (glycylglycine buffer, pH 5.0), not below 200 µM.
